Laboratory results reported in US12275684B2, “Methods for making and using endoxifen” (Atossa Therapeutics, Inc., priority 2017, dated 2025).
Like-named read-outs stand apart in the source and are kept apart here.

Key:
[1] = cited from earlier work
[2] = Placebo controlled, dose escalation pharmacokinetic study of oral (Z)-Endoxifen capsules (serum endoxifen; incl. accumulation ratios and dose linearity); type: in vivo, human
Source text: An objective of the study was to assess the safety and tolerability of oral (Z)-Endoxifen when administered […] orally as a capsule to healthy female volunteers. A secondary objective was to assess the pharmacokinetics of multiple doses of oral (Z)-Endoxifen in the subjects.
Generally, healthy female volunteers aged ≥18 years and ≤65 years were enrolled. 24 participants were enrolled in 3 cohorts and will be administered study drug orally. Three dose levels of orally administered (Z)-Endoxifen were investigated in 3 cohorts. In each cohort participants were randomized to receive an oral (Z)-Endoxifen or placebo in a blinded fashion. Enteric-resistant capsules used in the study were designed as delayed release capsules to resist rupture for at least 30 minutes, but typically, for about 2 hours, under gastric conditions and then open fully in intestinal fluid (DRCaps; Capsugel, a Lonza Company, USA). Enteric-resistant (Swedish Orange size Zero (0); Capsugel, USA) DRCaps capsules manually filled with 1, 2 or 4 mg of (Z)-endoxifen neat in compliance with GMP requirements were used. Placebo capsules contained microcrystalline cellulose an inert common capsule and tablet excipient.
Each cohort enrolled 8 participants, with 6 participants receiving (Z)-Endoxifen 1 mg capsules orally at 1 mg (Cohort 1), 2 mg (Cohort 2) or 4 mg (Cohort 3) doses and 2 participants receiving matching placebo capsules. In Cohort 1 (Dose Level=1 mg) two participants (sentinels) were dosed 24 hours prior to the remaining participants. One sentinel was dosed with (Z)-Endoxifen and the other with placebo. The remaining six participants in Cohort 1 were dosed as no safety concerns were identified in the sentinel participants. The non-sentinel participants in Cohort 1 were admitted to the clinical research facility at least one day later than the sentinels. There were no sentinels in Cohorts 2 and 3.
Participant engagement in this study was for a period of 56 days. These included a 28 day screening period, and a 7 day post treatment period for Pharmacokinetic (PK) sampling. There were two confinement periods, one at the beginning and one at the end of the dosing periods. Participants were confined to the clinical facility on Days-1 through to Day 2 and Days 21 and 22. If participants were to experience any clinically significant adverse events during the study, they would have been required to remain in the clinical facility for further observation at the discretion of the Principal Investigator (PI).
Healthy female volunteers were screened within 28 days prior to commencement of dosing. Participants were admitted to the clinical facility on Day-1 for up to 3 days. The first dose of (Z)-Endoxifen or placebo capsules was administered on Day 1. Following completion of all safety assessments and sampling for PK analyses, participants were discharged from the clinical facility on Day 2. The first dose on Day 1 was followed by a 6-day treatment free period (Days 2-7). Each participant returned to the clinical facility for PK blood draws and safety assessments during the treatment free period on study Days 4 and 6. On Day 8 participants commenced daily administration of (Z)-Endoxifen capsules or placebo capsules for 14 consecutive days (Days 8-21). Participants were supplied with study drug capsules and asked to self administer daily. Participants visited the clinical facility on Days 11, 14 and 17, prior to dose administration, for PK blood draws and safety assessments. On the morning of Day 21 each participant returned to the clinical facility prior to dose administration and were confined to the facility until Day 22 to allow for the collection of PK blood draws and safety assessments. The Day 21 dose was the last administration of study drug. Participants were discharged from the clinical facility on Day 22 and returned for PK blood draws and safety assessments on study Days 24, 26, and 28. […]

[3] = cited from earlier work; for predicted t90 for 10% conversion to (E)-endoxifen: solid state

## CC/C(=C(\c1ccccc1)c1ccc(OCCN(C)C)cc1)c1ccccc1 [tamoxifen, (Z)-2-[4-(1,2-diphenyl-1-butenyl)phenoxy]-N,N-dimethylethanamine]
[1]; in vivo
  Terminal elimination half life: 120 to 170 h
[1]; post-dose
  peak concentration time: approximately 5 hours

## CC/C(=C(\c1ccc(O)cc1)c1ccc(OCCNC)cc1)c1ccccc1 [Endoxifen]
[2]; AUC24 hr (log), Day 1
  dose linearity β Estimate: 0.873
[2]; AUC24 hr (log), Day 21
  dose linearity β Estimate: 1.008
[2]; Cmax (log), Day 1
  dose linearity β Estimate: 0.808
[2]; Cmax (log), Day 21
  dose linearity β Estimate: 1.055

## CC/C(=C(\c1ccc(O)cc1)c1ccc(OCCNC)cc1)c1ccccc1.Cl [(Z)-endoxifen HCl]
[3]; aqueous medium, 45° C.
  t90: 9 days
[3]; 25° C./60% RH
  predicted t90 for 10% conversion to (E)-endoxifen: 53 months
[3]; 40° C./75% RH
  predicted t90 for 10% conversion to (E)-endoxifen: 4.3 months
